Laboratory results published in patent US5506243A, “Sulfonamide derivatives” (Mitsubishi Kasei Corporation, priority 1993, dated 1996).

Target: T1, m-Calpin (Rattus norvegicus, UniProt Q07009)
T1 construct: m-Calpin was purified from brains of rats; from tissue; host or cells: rat brain
T1 sequence (Q07009 1-700): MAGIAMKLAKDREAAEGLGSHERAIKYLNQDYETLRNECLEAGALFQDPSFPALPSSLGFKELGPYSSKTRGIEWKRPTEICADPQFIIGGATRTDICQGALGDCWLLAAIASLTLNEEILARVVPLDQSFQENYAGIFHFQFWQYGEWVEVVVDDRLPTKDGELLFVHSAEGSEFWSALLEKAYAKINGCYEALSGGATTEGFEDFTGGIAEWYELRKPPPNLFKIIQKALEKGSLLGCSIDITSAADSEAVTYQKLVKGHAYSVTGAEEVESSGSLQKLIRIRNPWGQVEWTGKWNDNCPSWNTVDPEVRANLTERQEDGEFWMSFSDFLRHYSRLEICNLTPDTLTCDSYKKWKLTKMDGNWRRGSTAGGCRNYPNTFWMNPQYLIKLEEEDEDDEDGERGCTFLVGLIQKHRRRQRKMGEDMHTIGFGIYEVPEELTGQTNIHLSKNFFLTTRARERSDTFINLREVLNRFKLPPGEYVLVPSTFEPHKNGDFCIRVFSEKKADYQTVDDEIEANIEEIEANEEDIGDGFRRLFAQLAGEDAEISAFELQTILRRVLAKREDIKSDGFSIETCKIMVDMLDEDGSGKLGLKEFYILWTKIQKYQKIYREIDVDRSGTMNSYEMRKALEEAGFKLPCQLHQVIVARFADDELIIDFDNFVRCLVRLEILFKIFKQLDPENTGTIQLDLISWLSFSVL
T1 sequence (Q64537 1-270 partner): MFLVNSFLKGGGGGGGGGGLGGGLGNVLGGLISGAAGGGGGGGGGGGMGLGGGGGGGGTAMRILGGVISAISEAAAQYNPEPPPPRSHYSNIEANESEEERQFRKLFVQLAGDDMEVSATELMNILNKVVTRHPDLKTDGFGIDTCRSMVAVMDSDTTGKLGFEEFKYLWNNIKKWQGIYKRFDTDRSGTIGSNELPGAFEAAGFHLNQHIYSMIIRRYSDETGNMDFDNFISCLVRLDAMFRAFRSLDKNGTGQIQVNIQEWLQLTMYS
Test: Measurement of calpain inhibitory activity
Type: biochemical
Conditions: m-calpain purified from brains of rats
Experimental: Measurement of calpain inhibitory activity
For comparison, inhibitory activity of leupeptin (N-terminus is in the form of amide) and calpeptin (N-terminus is in the form of carbamate) was also measured.

| Compound | IC50 [nM] |
| --- | --- |
| CC(=O)N[C@@H](CC(C)C)C(=O)N[C@@H](CC(C)C)C(=O)N[C@H](C=O)CCCNC(=N)N [Leupeptin] | 360 |
| CC(C)C[C@H](NS(=O)(=O)c1ccccc1)C(=O)N[C@H](C=O)C(C)C [Example 1, N-phenylsulfonyl-L-leucyl-L-valinal] | 11 |
| CC(C)C[C@H](NS(=O)(=O)c1cccnc1)C(=O)N[C@H](C=O)C(C)C [Example 2, N-3-pyridylsulfonyl-L-leucyl-L-valinal] | 6.5 |
| CCCC[C@@H](C=O)NC(=O)[C@H](CC(C)C)NC(=O)OCc1ccccc1 [Calpeptin] | 46 |
